From patent US4785017A, “3,4-dihydro-2H-1-benzopyran derivatives” (Hoffmann-La Roche Inc., priority 1984, dated 1988)
pIC50: −log10 of the molar value.

What was measured:
[1] = test system: SRS-A-induced constriction of the guinea pig ileum; test: Guinea Pig Ileum, In Vitro: inhibition of SRS-A-induced constriction (SRS-A antagonism); details: SRS-A antagonism; SRS-A at EC50, 37° C., with atropine sulfate and pyrilamine maleate; read-out: In vitro Guinea Pig ileum IC50
Experimental: (a) Guinea Pig Ileum, In Vitro:
The guinea pig ileum bioassay system has been described by Orange Austen, Adv. Immunol. […] A 1.5 cm segment is removed from animals weighing 300-400 g and suspended in an organ bath containing 10 ml of Tyrodes solution with 10^-6 M atropine sulfate and 10^-6 M pyrilamine maleate. […] The SRS-A utilized in this screen is obtained by challenging chopped lung fragments from actively sensitized guinea pigs with egg albumin, in vitro. A dose-response curve to SRS-A challenge is established for the ileum. […] The drug concentration which inhibits, by 50%, the SRS-A-induced constriction of the guinea pig ileum is determined.

[2] = test system: leukotriene D4 induced bronchoconstriction; test: Guinea Pig Bronchoconstriction, In Vivo (Aerosol), leukotriene D4 challenge; design: species or system guinea pig (Hartley strain); details: aerosol assay with leukotriene E4 replaced with leukotriene D4
[3] = test system: leukotriene E4 induced bronchoconstriction; test: Guinea Pig Bronchoconstriction, In Vivo (Aerosol), leukotriene E4 challenge; design: species or system guinea pig (Hartley strain); details: five minute aerosol exposure (% w/v aerosol solution); maximum constrictory dose of leukotriene E4 i.v.; propanolol pretreatment
Experimental: (b) Guinea Pig Bronchoconstriction, In Vivo (Aerosol):
Male guinea pigs (Hartley strain) weighing 300 to 500 g are anesthetized with urethane (2 g/kg) intraperitoneally and a polyethylene cannula is inserted into the jugular vein for drug administration. Tracheal pressure is recorded from a cannula inserted in the trachea and connected to a Statham pressure transducer. After surgical preparation of the animals, a period of time is allowed for pulmonary functions to stabilize. The test compound is administered according to the following protocol. Propanolol (0.1 mg/kg) is administered intravenously while the animals breathed spontaneously. Five minutes thereafter, the animals are exposed for a five minute period to a 1% (w/v) aerosol solution of test compound (adjusted to an alkaline pH where necessary for drug solubilization) or to distilled water of the appropriate pH (for control purposes). A Monaghan (Model 750) ultrasonic nebulizer is used to administer all test compounds by inhalation. The nebulizer ultrasonic frequency is adjusted to produce particles in the 1-8μ diameter range (average 3μ). Aqueous solutions are prepared freshly and introduced into the chamber of the nebulizer. The output of the nebulizer is made available to the animal by directing a bias flow of aerosol through a Y tube connected to the tracheal cannula. At the end of the exposure period, the animals are paralyzed with succinylcholine (1.2 mg/kg, i.v.) and mechanically respirated (Harvard rodent respirator) at 40 breaths/minute and 2.5 cc tidal volume. Animals are then challenged with a maximum constrictory dose of leukotriene E4 delivered intravenously 30 seconds after administration of the succinylcholine.
The change (cm H2 O) between pre and peak ventilatory pressure readings averaged for three control animals and five drug treated animals. The percent inhibition is calculated from the following formula: [formula] When various drug concentrations are tested, the percent inhibition at each concentration is plotted as log concentration (abscissa) versus percent inhibition (ordinate) and the IC50 is determined from linear regression analysis.

[4] = test system: leukotriene D4 induced bronchoconstriction; test: Oral Testing of Leukotriene Antagonists, leukotriene D4 challenge; type: in vivo, guinea pig (Hartley strain, Charles River); details: 10 mg/kg by the oral route, two hours prior to challenge with leukotriene D4
Experimental: (c) Oral Testing of Leukotriene Antagonists
Male guinea pigs (Hartley strain, Charles River) weighing 400 to 600 g were anesthetized with urethane (2 g/kg) intraperitoneally and a polyethylene cannula was inserted into the jugular vein for intravenous drug administration. Tracheal pressure (cm water) was recorded from a Statham pressure transducer. After surgical preparation of the animals, a period of time was allowed for spontaneous breathing to stabilize. […] Two minutes later, spontaneous breathing was arrested with succinylcholine chloride (1.2 mg/kg, i.v.) and the animals ventilated with a Harvard (Model #680) small animal respirator set at 40 breaths per minute and 4.0 cc stroke volume. The animals were challenged with a maximum constrictory does of either leukotriene C4 or leukotriene D4 or leukotriene E4 (25 ug/kg, i.v.) at 5 minutes. Control vehicle or test drug (adjusted to an alkaline pH where necessary for drug solubilization) was administered (10 mg/kg, p.o.) two hours prior to challenge with leukotriene. In order to determine the ID50 for a test drug, the dose is varied from 10 mg/kg, p.o. to 100, 50, 30, 20, 5, 3 and 1 mg/kg, p.o.
In order to determine oral duration of action, the time between exposure to test drug and challenge with leukotriene is varied.

`CCCc1c(OCCCCCOc2cc3c(cc2C(C)=O)CCC(C(=O)O)O3)ccc(C(C)=O)c1O` (racemic) [racemic-6-acetyl-7-[5-(4-acetyl-3-hydroxy-2-propylphenoxy)pentyloxy]-3,4-dihydro-2H-1-benzopyran-2-carboxylic acid] was tested, and the pIC50 [1] was 7.22, the “IC50 value in inhibiting bronchoconstriction (aerosol)” value [2] was 0.0056% and the “Guinea Pig Bronchoconstriction In vivo aerosol - IC50(%)” value [3] was 0.052%.

In the case of `CCCc1c(OCCCCCOc2cc3c(cc2C(C)=O)CCC(CCCCC(=O)O)O3)ccc(C(C)=O)c1O` (racemic) [racemic-6-acetyl-7-[5-(4-acetyl-3-hydroxy-2-propylphenoxy)pentyloxy]-3,4-dihydro-2H-1-benzopyran-2-pentanoic acid], the “inhibition of leukotriene D4 induced bronchoconstriction” value [4] was 46±14%.

With `CCCc1c(OCCCCCCCOc2cc3c(cc2C(C)=O)CCC(C(=O)O)O3)ccc(C(C)=O)c1O` (racemic) [racemic-6-acetyl-7-[7-(4-acetyl-3-hydroxy-2-propylphenoxy)heptyloxy]-3,4-dihydro-2H-1-benzopyran-2-carboxylic acid] the pIC50 [1] was 6.00 and the “Guinea Pig Bronchoconstriction In vivo aerosol - IC50(%)” value [3] was 1.0%.

In the case of `CCCc1c(OCCCOc2ccc3c(c2CCC)OC(C)(CCC(=O)O)CC3)ccc(C(C)=O)c1O` (racemic) [racemic-7-[3-(4-acetyl-3-hydroxy-2-n-propylphenoxy)propoxy]-3,4-dihydro-2-methyl-8-n-propyl-2H-1-benzopyran-2-propanoic acid], the pIC50 [1] was 6.30 and the “Guinea Pig Bronchoconstriction In vivo aerosol - IC50(%)” value [3] was 0.71%.

In the case of `CCCc1c(OCCCOc2ccc3c(c2)OC(C(=O)O)CC3)ccc(C(C)=O)c1O` (racemic) [racemic-7-[3-(4-acetyl-3-hydroxy-2-propyl)phenoxy)propoxy]-3,4-dihydro-2H-1-benzopyran-2-carboxylic acid], the pIC50 [1] was 7.22 and the “Guinea Pig Bronchoconstriction In vivo aerosol - IC50(%)” value [3] was 0.14%.

With `CCCc1c(OCCCOc2ccc3c(c2CCC)OC(C(=O)O)CC3)ccc(C(C)=O)c1O` (racemic) [racemic-7-[3-(4-acetyl-3-hydroxy-2-propyl)phenoxy)propoxy]-3,4-dihydro-8-propyl-2H-1-benzopyran-2-carboxylic acid] the pIC50 [1] was 7.00 and the “Guinea Pig Bronchoconstriction In vivo aerosol - IC50(%)” value [3] was 0.20%.

With `CCCc1c(OCCCOc2ccc3c(c2)OC(C)(CCC(=O)O)CC3)ccc(C(C)=O)c1O` (racemic) [racemic-7-[3-(4-acetyl-3-hydroxy-2-propylphenoxy)propoxy]-3,4-dihydro-2-methyl-2H-1-benzopyran-2-propanoic acid] the pIC50 [1] was 7.00 and the “Guinea Pig Bronchoconstriction In vivo aerosol - IC50(%)” value [3] was > 1.0%.

For `CCCc1c(OCCCOc2ccc3c(c2)OC(CC(=O)O)CC3)ccc(C(C)=O)c1O` (racemic) [racemic-7-[3-(4-acetyl-3-hydroxy-2-propylphenoxy)propoxy]-3,4-dihydro-2H-1-benzopyran-2-acetic acid], the pIC50 [1] was 7.00 and the “Guinea Pig Bronchoconstriction In vivo aerosol - IC50(%)” value [3] was 0.67%.

`CCCc1c(OCCCOc2cc3c(cc2C(C)=O)OC(C)(C(=O)O)CC3)ccc(C(C)=O)c1O` (racemic) [racemic-7-acetyl-6-[3-(4-acetyl-3-hydroxy-2-propylphenoxy)propoxy]-3,4-dihydro-2-methyl-2H-1-benzopyran-2-carboxylic acid] was tested, and the pIC50 [1] was 6.30 and the “Guinea Pig Bronchoconstriction In vivo aerosol - IC50(%)” value [3] was 1.0%.

In the case of `CCCc1c(OCCCOc2cc3c(cc2C(C)=O)OC(C(=O)O)CC3)ccc(C(C)=O)c1O` (racemic) [racemic-7-acetyl-6-[3-(4-acetyl-3-hydroxy-2-propylphenoxy)propoxy]-3,4-dihydro-2H-1-benzopyran-2-carboxylic acid], the pIC50 [1] was 6.70 and the “Guinea Pig Bronchoconstriction In vivo aerosol - IC50(%)” value [3] was 0.34%.

In the case of `CCCc1c(OCCCOc2ccc3c(c2C(C)=O)OC(C(=O)O)CC3)ccc(C(C)=O)c1O` (racemic) [racemic-8-acetyl-7[3-(4-acetyl-3-hydroxy-2-propylphenoxy)propoxy]-3,4-dihydro-2H-1-benzopyran-2-carboxylic acid], the pIC50 [1] was 6.52 and the “Guinea Pig Bronchoconstriction In vivo aerosol - IC50(%)” value [3] was 0.59%.

`CCCc1c(OCCCCCOc2cc3c(cc2C(C)=O)CC[C@H](C(=O)O)O3)ccc(C(C)=O)c1O` [(R)-6-acetyl-7-[5-(4-acetyl-3-hydroxy-2-propylphenoxy)pentyloxy]-3,4-dihydro-2H-1-benzopyran-2-carboxylic acid] was tested, and the pIC50 [1] was 7.00 and the “IC50 value in inhibiting bronchoconstriction (aerosol)” value [2] was 0.018%.

For `CCCc1c(OCCCCCOc2cc3c(cc2C(C)=O)CC[C@@H](C(=O)O)O3)ccc(C(C)=O)c1O` [(S)-6-acetyl-7-[5-(4-acetyl-3-hydroxy-2-propylphenoxy)pentyloxy]-3,4-dihydro-2H-1-benzopyran-2-carboxylic acid], the pIC50 [1] was 7.22 and the “IC50 value in inhibiting bronchoconstriction (aerosol)” value [2] was 0.0018%.
